Results published in patent US8440672B2, “Diphenyl substituted alkanes” (Merck Sharp & Dohme Corp., priority 2006, dated 2013).

Target: T1, FLAP (Homo sapiens, UniProt P20292)
T1 construct: A 100,000×g pellet from human leukocyte 10,000×g supernatants (1) is the source of FLAP; from tissue; host or cells: human leukocytes (100,000 x g membrane pellet)
T1 sequence (P20292 1-161): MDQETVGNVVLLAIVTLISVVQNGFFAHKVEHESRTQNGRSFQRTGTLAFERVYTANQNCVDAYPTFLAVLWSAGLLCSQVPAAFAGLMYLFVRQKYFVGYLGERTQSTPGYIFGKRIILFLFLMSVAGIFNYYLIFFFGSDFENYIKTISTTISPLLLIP
Assay: FLAP Binding Assay
Settings: competition with radiolabelled Compound A; 100,000×g pellet membranes from human leukocyte; 20 minute incubation at room temperature
Procedure: A 100,000×g pellet from human leukocyte 10,000×g supernatants (1) is the source of FLAP. The 100,000×g pellet membranes were resuspended in Tris-Tween assay buffer (100 mM Tris HCl pH 7.4, 140 mM NaCl, 2 mM EDTA, 0.5 mM dithiothreitol, 5% glycerol, 0.05% Tween 20) to yield a final protein concentration of 50 μg to 150 μg/ml. Aliquots (100 μl) of membrane suspension were added to 12 mm×75 mm polypropylene tubes containing 100 μl Tris-Tween assay buffer, 30,000 cpm of Compound A in 5 μl MeOH:assay buffer (1:1), and 2 μl dimethyl sulfoxide or competitor (i.e., the compound to be tested) in dimethyl sulfoxide. Compound B (10 μM final concentration) was used to determine non-specific binding. After a 20 minute incubation at room temperature, tube contents were diluted to 4 ml with cold 0.1 M Tris HCl pH 7.4, 0.05% Tween 20 wash buffer and the membranes were collected by filtration of GFB filters presoaked in the wash buffer. Tubes and filters were rinsed with 2×4 ml aliquots of cold wash buffer. Filters were transferred to 12 mm×3.5 mm polystyrene tubes for determination of radioactivity by gamma-scintillation counting.
Specific binding is defined as total binding minus non-specific binding. Total binding was Compound A bound to membranes in the absence of competitor; non-specific binding was Compound A bound in the presence of 10 uM Compound B. Preparation of Compound A is described in reference 1, below. The IC50 values were obtained by computer analysis (see reference 2, below) of the experimental data.

IC50 | SMILES
0.7 nM | COc1cncc(-c2ccc(C(C)(c3ccc(-c4ccc(S(C)(=O)=O)nn4)cn3)C(C)C)cc2)c1 (stereo not shown) [Example 5a, 3-(6-{1-[4-(5-methoxypyridin-3-yl)phenyl]-1,2-dimethylpropyl}pyridin-3-yl)-6-(methylsulfonyl)pyridazine]
2.8 nM | CC(C)C(C)(c1ccc(-c2cncc(OCF)c2)cc1)c1ccc(-c2ccc(C(F)(F)F)nn2)cn1 (stereo not shown) [Example 6c, 3-[6-(1-{4-[5-(fluoromethoxy)pyridin-3-yl]phenyl}-1,2-dimethylpropyl)pyridin-3-yl]-6-(trifluoromethyl)pyridazine]
0.7 nM | CC(C)C(C)(c1ccc(OCc2ccccn2)cc1)c1ccc(-c2ccc(C(C)(C)O)nn2)cn1 (stereo not shown) [Example 10Aj, 2-[6-(6-{1,2-dimethyl-1-[4-(pyridin-2-ylmethoxy)phenyl]propyl}pyridin-3-yl)pyridazin-3-yl]propan-2-ol]
0.5 nM | CC(C)C(C)(c1ccc(-c2cnc(N)nc2)cc1)c1ccc(-c2ccc(C(C)(C)O)nn2)cn1 (stereo not shown) [Example 4f, 2-[6-(6-{1-[4-(2-aminopyrimidin-5-yl)phenyl]-1,2-dimethylpropyl}pyridin-3-yl)pyridazin-3-yl]propan-2-ol]
0.6 nM | CC(C)C(C)(c1ccc(-c2ccc(N)nn2)cc1)c1ccc(-c2ccc(C(C)(C)O)nn2)cn1 (stereo not shown) [Example 4g, 2-[6-(6-{1-[4-(6-aminopyridazin-3-yl)phenyl]-1,2-dimethylpropyl}pyridin-3-yl)pyridazin-3-yl]propan-2-ol]
2.4 nM | CC(C)C(C)(c1ccc(-c2cncc(OCc3ccccc3)c2)cc1)c1ccc(-c2ccc(C(F)(F)F)nn2)cn1 (stereo not shown) [Example 6Da, 3-[6-(1-{4-[5-(benzyloxy)pyridin-3-yl]phenyl}-1,2-dimethylpropyl)pyridin-3-yl]-6-(trifluoromethyl)pyridazine]
1.2 nM | CC(C)C(C)(c1ccc(-c2cnc(N)nc2)cc1)c1ccc(C(C)(C)O)cn1 (stereo not shown) [Example 7Ad, 2-(6-{1-[4-(2-aminopyrimidin-5-yl)phenyl]-1,2-dimethylpropyl}pyridin-3-yl)propan-2-ol]
2.1 nM | COc1cncc(-c2ccc(C(C)(c3ccc(-c4noc(C(C)(C)O)n4)cn3)C(C)C)cc2)c1 (stereo not shown) [Example 1Ac, 2-[3-(6-{1-[4-(5-methoxypyridin-3-yl)phenyl]-1,2-dimethylpropyl}pyridin-3-yl)-1,2,4-oxadiazol-5-yl]propan-2-ol]
1.1 nM | COc1cncc(-c2ccc(C(C)(c3ccc(-c4ccc(C(C)(C)O)nn4)cn3)C(C)C)cc2)c1 (stereo not shown) [Example 4d, 2-[6-(6-{1-[4-(5-methoxypyridin-3-yl)phenyl]-1,2-dimethylpropyl}pyridin-3-yl)pyridazin-3-yl]propan-2-ol]
5.8 nM | CC(C)(C)C(c1ccc(OCc2ccccn2)cc1)c1ccc(-c2nnc(N)o2)cn1 (stereo not shown) [Example 8a, 5-(6-{2,2-dimethyl-1-[4-(pyridin-2-ylmethoxy)phenyl]pronyl}pyridin-3-yl)-1,3,4-oxadiazol-2-amine]
2.9 nM | CC(C)C(C)(c1ccc(OCc2nccs2)cc1)c1ccc(-c2noc(C(C)(C)O)n2)cn1 (stereo not shown) [Example 10Ca, 2-[3-(6-{1,2-dimethyl-1-[4-(1,3-thiazol-2-ylmethoxy)phenyl]propyl}pyridin-3-yl)-1,2,4-oxadiazol-5-yl]propan-2-ol]
14 nM | Cn1nnc(-c2ccc(C(c3ccc(OCc4ccccn4)cc3)C(C)(C)C)nc2)n1 (stereo not shown) [Example 9b, 2-{2,2-dimethyl-1-[4-(pyridin-2-ylmethoxy)phenyl]propyl}-5-(2-methyl-2H-tetrazol-5-yl)pyridine]
3.6 nM | COc1cncc(-c2ccc(C(C)(c3ccc(-c4noc(C5(N)CC5)n4)cn3)C(C)C)cc2)c1 (stereo not shown) [Example 2b]
0.7 nM | COC(=O)c1ccc(-c2ccc(C(C)(c3ccc(OCc4ccccn4)cc3)C(C)C)nc2)nn1 (stereo not shown) [Example 10Ah, methyl 6-(6-{1,2-dimethyl-1-[4-(pyridin-2-ylmethoxy)phenyl]propyl}pyridin-3-yl)pyridazine-3-carboxylate]
1.4 nM | COc1cncc(-c2ccc(C(C)(c3ccc(-c4ccc(C(F)(F)F)nn4)cn3)C(C)C)cc2)c1 (stereo not shown) [Example 4Ad, 3-(6-{1-[4-(5-methoxypyridin-3-yl)phenyl]-1,2-dimethylpropyl}pyridin-3-yl)-6-(trifluoromethyl)pyridazine]
2.3 nM | CC(C)C(C)(c1ccc(-c2ccc(N)nn2)cc1)c1ccc(C(C)(C)O)cn1 (stereo not shown) [Example 7Bd, 2-(6-(1-[4-(6-aminopyridazin-3-yl)phenyl]-1,2-dimethylpropyl)pyridin-3-yl)propan-2-ol]
